# Test results from US20200369626A1 (Washington University, priority 2019, published 2020).
# Several values for one entry are separate records, joined by “and”; a condition that tells them apart may be missing. Equal values may be shown once.
# Key:
# S1PR2 = target: T1, S1PR2 (Homo sapiens, UniProt O95136); test: competitive [^32P]S1P binding assay on cell membranes, S1PR2; details: read-out: [^32P]S1P competition assay IC50; S1PR2, radioligand [^32P]S1P
# T1 construct: purchased
# Description: The test compounds were dissolved in DMSO and diluted into test samples with increasing concentrations with assay buffer. Commercial cell membranes expressing recombinant human S1PR were diluted with assay buffer to make a 20-40 μg/mL of solution. […] The plate was incubated for 60 min at room temperature with shaking and terminated by collecting the membranes onto 96-well glass fiber (GF/B) filtration plates (Millipore, Billerica, Mass.). Each filter was washed with 200 μL of assay buffer for a total of five washes. […] The IC50 values were fitted from GraphPad Prism 6 using one site Nonlinear Regression.
# [1] = target: T2, Human recombinant sphingosine-1-phosphate receptor 2 (Homo sapiens, UniProt O95136); test: competitive binding assay using [^125I]34 as radioligand; details: S1PR2, radioligand [^125I]34; read-out: [^125I]34 competition assay IC50
# T2 sequence (O95136 whole entry): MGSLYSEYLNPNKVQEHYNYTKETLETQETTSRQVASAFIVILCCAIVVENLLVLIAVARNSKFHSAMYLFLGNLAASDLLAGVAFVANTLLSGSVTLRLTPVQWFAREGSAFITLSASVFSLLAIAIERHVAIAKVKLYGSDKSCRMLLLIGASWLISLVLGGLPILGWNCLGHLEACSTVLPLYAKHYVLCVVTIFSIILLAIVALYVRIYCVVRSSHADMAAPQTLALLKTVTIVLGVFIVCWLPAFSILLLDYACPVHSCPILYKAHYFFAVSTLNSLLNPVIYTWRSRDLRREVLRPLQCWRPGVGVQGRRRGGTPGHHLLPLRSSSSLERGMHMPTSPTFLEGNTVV
# Description: Then, 50 μL of different concentrations (0.01, 0.05, 0.1, 0.5, 1.0, 5.0, 10.0, 50.0, 100, 500, 1000 nM) of each ligand and 50 μL of [^125]34 (6.0 nM) was added to each well. The mixture was incubated for 1 h on a shaker at room temperature and then transferred onto a 96-well glass fiber filtration plates. The unbound activity was filtered and rapidly washed using ice-cold assay buffer (5×200 μL/well). After drying under reduced pressure, the filter bound radionuclide was measured by a Beckman 8000 automated gamma counter. The binding potency (IC50) was calculated using GraphPad Prism.
# [2] = target: T2, Human recombinant sphingosine-1-phosphate receptor 2; test: biochemical; format: binding
# Description: Then, a 50 μL aliquot of increasing concentrations of [^125I]34 (0.2, 0.5, 1.0, 2.0, 4.0, 6.0, 8.0, 10.0, 16.0, and 20.0 nM) was added to each well; each concentration of [^125I]34 was calculated from the radioactivity and specific activity. […] The mixture was incubated at room temperature for 1 h on a shaker and then transferred onto 96-well glass fiber filtration plates. The unbound activity was filtered and rapidly washed away using 200 μL/well of ice-cold assay buffer for 5 times. After drying under the vacuum, the filter bound radionuclide was measured by a Beckman 8000 automated gamma counter. Data analysis was accomplished using GraphPad Prism (GraphPadSoftware, Inc., San Diego, Calif.). The specific binding was calculated by subtracting the non-specific binding from the total binding. The binding assay data were curve-fit to a one-site binding equation to generate the dissociation constant (Kd) of the [^125I]34.
# [3] = ex vivo biodistribution study of [^125I]34 in Wistar rats
# Description: A pilot biodistribution study was carried out in a small number of rats at early time points post-injection in order to minimize the amount of mixed (radioactive and biological) waste generated by in vivo work. […] Control and streptozotocin-treated Wistar rats were used 10 days after treatment for the preliminary pilot acute ex vivo biodistribution study described below.
# As described above, adult male Wistar rats from Charles River were used for a pilot study to evaluate the distribution of [^125I]34 in normal rats at 5 and 30 min post injection and in acute streptozotocin-induced diabetic rats 30 min post-injection (n=4 for each group). The acute streptozotocin-induced diabetic rats were treated 10 days before the study as described above. […] The concentrated solution of [^125I]34 was diluted to ˜0.037 MBq/100 μL which was formulated for injection in 10% ethanol in 5% polyoxyethylated 12-hydroxystearic acid (Kolliphor® HS 15, Millipore Sigma, Billerica, Mass.) and normal saline solution, in order to ensure that the radioactivity was solubilized. Rats were injected via the lateral tail vein under 2-3% isoflurane/oxygen anesthesia, then allowed to recover until euthanized under isoflurane/oxygen anesthesia at the appropriate time point post-injection. Tissues including blood, heart, lung, liver, kidney, muscle, fat, pancreas, spleen, kidney, liver, thyroid, thymus, brain, and small intestines were collected, weighed, and counted in a Beckman Gamma 8000 counter, and counts were corrected for background and decay corrected. Tracer uptake in tissues and organs was calculated as percent injected dose per gram of tissue (% ID/g).
# [4] = target: T3, sphingosine-1-phosphate receptor 2 in kidney sections (Rattus norvegicus, UniProt P47752); test: in vitro autoradiography of [^125I]34 on rat kidney sections; format: binding, Sprague Dawley rats
# T3 construct: from tissue; host or cells: kidney of male Sprague Dawley rats (control and STZ-induced diabetic)
# T3 sequence (P47752 whole entry): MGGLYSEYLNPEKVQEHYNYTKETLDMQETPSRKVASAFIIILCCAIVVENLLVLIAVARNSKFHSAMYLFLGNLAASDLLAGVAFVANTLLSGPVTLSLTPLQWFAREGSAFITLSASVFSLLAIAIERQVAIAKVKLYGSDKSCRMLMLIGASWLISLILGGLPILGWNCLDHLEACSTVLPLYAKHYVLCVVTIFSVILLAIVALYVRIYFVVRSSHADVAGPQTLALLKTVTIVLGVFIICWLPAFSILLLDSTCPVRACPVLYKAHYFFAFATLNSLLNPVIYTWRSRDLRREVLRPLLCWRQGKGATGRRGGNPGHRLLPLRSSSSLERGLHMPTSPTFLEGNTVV
# Description: To check that changes of S1PR2 expression can be detected using [^125I]34 in the STZ induced diabetes rats, in vitro autoradiography studies of [^125]34 were performed.
# Male Sprague Dawley (SD) rats (8 weeks old,) received streptozotocin (STZ) via tail vein injections at a dose of 55 mg/kg in 50 mM sodium citrate buffer 12 weeks prior to euthanasia and tissue harvesting. Body weight and blood glucose levels were measured weekly in control and treated animals, where elevated blood glucose was indicative of chronic diabetes (see FIG. 5a). After 12 weeks, the rats were euthanized and one kidney was removed, snap-frozen, and sectioned (14 microns) with a Leica cryostat.
# The autoradiography experiment was performed by incubating frozen cross sections of rat kidney tissue and 1.85 KBq/slide of [^125I]34 in 500 μL of binding buffer (50 mM HEPES-Na pH 7.5, 5 mM MgCl2, and 1 mM CaCl2, 0.5% fatty acid-free bovine serum albumin) to check the uptake of the radioactivity. Blocking studies of radiotracer were performed by incubating the above solution with 10 μM of JTE-013, a S1PR2 specific inhibitor. After incubation for 60 minutes at room temperature, the kidney sections were washed 2 minutes each using the following buffers sequentially: 1×TBST, 15% ethanol in 1×TBST, 30% ethanol in 1×TBST, 1×TBST (1×TBST buffer: 20 mM of Tris, 150 mM of NaCl, 0.1% of Tween 20). Then, the section slides were placed into a cassette and exposed to a phosphor sensor sheet for 24 hours. Autoradiography signal was visualized by phosphor-imaging of FLA7000. Autoradiography signal on the renal tissues (cortex and medulla, not including the renal papilla) was measured and quantified with Multi Gouge program. The data was background-corrected and expressed as photo-stimulated luminescence signals per square millimeter (PSL/mm^2) as shown in FIG. 5B. For statistical comparison, the student t-test (unpaired) was applied using MS Excel and p<0.05 was considered statistically significant (see FIG. 5C.)
# T1 sequence (O95136 whole entry): as the sequence (O95136 whole entry) above
structure (smiles),measurement,setting,value
"COc1ccc(NC(=O)Cn2c(=O)c3ccccc3n(CC(=O)Nc3cc(I)c(OC)cc3OC)c2=O)cc1 [Compound 34, N-(5-iodo-2,4-dimethoxyphenyl)-2-(3-(2-((4-methoxyphenyl)amino)-2-oxoethyl)-2,4-dioxo-3,4-dihydroquinazolin-1(2H)-yl)acetamide]",IC50,S1PR2,2.8 nM
same,IC50,[1],4.4 ± 0.2 nM
COc1ccc(NC(=O)Cn2c(=O)c3ccccc3n(CC(=O)Nc3cc([125I])c(OC)cc3OC)c2=O)cc1 [[^125I]34],Kd,[2],4.31 ± 0.39 nM
same,Uptake Blood,[3]; 5 min control,0.19 % ID/g and 0.19 ± 0.05 % ID/g
same,Uptake Blood,[3]; 30 min acute diabetic,0.08 ± 0.05 % ID/g
same,Uptake Blood,[3]; 30 min control,0.08 ± 0.02 % ID/g
same,Uptake Brain,[3]; 5 min control,0.01 % ID/g and 0.01 ± 0.00 % ID/g
same,Uptake Brain,[3]; 30 min acute diabetic,0.01 ± 0.00 % ID/g
same,Uptake Brain,[3]; 30 min control,0.01 ± 0.00 % ID/g
same,Uptake Fat,[3]; 5 min control,0.07 ± 0.02 % ID/g
same,Uptake Fat,[3]; 30 min acute diabetic,0.11 ± 0.04 % ID/g
same,Uptake Fat,[3]; 30 min control,0.09 ± 0.01 % ID/g
same,Uptake Heart,[3]; 5 min control,0.39 % ID/g and 0.39 ± .08 % ID/g
same,Uptake Heart,[3]; 30 min acute diabetic,0.12 ± 0.06 % ID/g
same,Uptake Heart,[3]; 30 min control,0.14 ± 0.02 % ID/g
same,Uptake Kidney,[3]; 5 min control,0.58 % ID/g and 0.58 ± 0.02 % ID/g
same,Uptake Kidney,[3]; 30 min acute diabetic,0.15 ± 0.06 % ID/g
same,Uptake Kidney,[3]; 30 min control,0.15 ± 0.02 % ID/g
same,Uptake Liver,[3]; 5 min control,2.20 % ID/g and 2.20 ± 0.32 % ID/g
same,Uptake Liver,[3]; 30 min acute diabetic,0.36 ± 0.14 % ID/g
same,Uptake Liver,[3]; 30 min control,0.36 ± 0.07 % ID/g
same,Uptake Lung,[3]; 5 min control,0.64 % ID/g and 0.64 ± 0.01 % ID/g
same,Uptake Lung,[3]; 30 min acute diabetic,0.20 ± 0.09 % ID/g
same,Uptake Lung,[3]; 30 min control,0.22 ± 0.04 % ID/g
same,Uptake Muscle,[3]; 5 min control,0.12 ± 0.01 % ID/g
same,Uptake Muscle,[3]; 30 min acute diabetic,0.06 ± 0.02 % ID/g
same,Uptake Muscle,[3]; 30 min control,0.08 ± 0.01 % ID/g
same,Uptake Pancreas,[3]; 5 min control,0.40 ± 0.04 % ID/g
same,Uptake Pancreas,[3]; 30 min acute diabetic,0.12 ± 0.04 % ID/g
same,Uptake Pancreas,[3]; 30 min control,0.14 ± 0.01 % ID/g
same,Uptake Small intestines,[3]; 5 min control,1.09 ± 0.23 % ID/g
same,Uptake Small intestines,[3]; 30 min acute diabetic,2.59 ± 0.58 % ID/g
same,Uptake Small intestines,[3]; 30 min control,5.32 ± 0.27 % ID/g
same,Uptake Spleen,[3]; 5 min control,0.29 ± 0.06 % ID/g
same,Uptake Spleen,[3]; 30 min acute diabetic,0.05 ± 0.02 % ID/g
same,Uptake Spleen,[3]; 30 min control,0.06 ± 0.01 % ID/g
same,Uptake Thymus,[3]; 5 min control,0.10 ± 0.01 % ID/g
same,Uptake Thymus,[3]; 30 min acute diabetic,0.08 ± 0.03 % ID/g
same,Uptake Thymus,[3]; 30 min control,0.10 ± 0.02 % ID/g
same,Uptake Thyroid,[3]; 5 min control,0.32 ± 0.11 % ID/g
same,Uptake Thyroid,[3]; 30 min acute diabetic,0.25 ± 0.06 % ID/g
same,Uptake Thyroid,[3]; 30 min control,0.53 ± 0.09 % ID/g
same,in vivo metabolic stability,[3]; inferred from low activity in the thyroid,metabolically stable
same,crossing of the blood brain barrier,[3]; inferred from very low brain uptake in rats,does not cross the blood brain barrier
same,blocking of binding to kidney tissue,"[4]; 10 μM of JTE-013, both groups",could be blocked
same,kidney radioactivity (autoradiography signal),"[4]; chronic diabetic (STZ) rats, n=5",103.5 PSL/mm^2
same,increase of binding to kidney of diabetic rats compared to control rats,[4]; chronic diabetic vs control,44%
same,kidney radioactivity (autoradiography signal),"[4]; control rats, n=4",72.0 PSL/mm^2
